From the NIST ThermoML archive (doi:10.1021/je900777q)
“And” between values parts separate entries of the source, which are not always exact repeats. Equal values may be shown once.

Experiments:
[1] = Molar enthalpy of transition or fusion; conditions: Crystal; DSC
[2] = Crystal; for vapor or sublimation pressure: Calculated from knudsen effusion weight loss; for Normal melting temperature: DTA

O=C(O)c1cccc(O)c1O [2,3-dihydroxybenzoic acid]
Conditions	Molar enthalpy of transition or fusion [kcal/mol]	Normal melting temperature [°C]
[1]	7.62	–
[2]	–	203.2

[2]
Conditions	vapor or sublimation pressure
345.22 K	0.000158 kPa and 0.000159 kPa and 0.000157 kPa
347.21 K	0.000201 kPa and 0.000196 kPa and 0.000197 kPa
349.23 K	0.00025 kPa and 0.000248 kPa and 0.000246 kPa
351.19 K	0.000308 kPa and 0.00031 kPa
353.21 K	0.00038 kPa and 0.000377 kPa
355.17 K	0.000468 kPa and 0.000466 kPa
357.2 K	0.000569 kPa and 0.000565 kPa and 0.000564 kPa
359.2 K	0.000716 kPa and 0.000708 kPa and 0.000711 kPa
361.21 K	0.000867 kPa and 0.000857 kPa and 0.000861 kPa
363.18 K	0.001039 kPa and 0.001029 kPa

O=C(O)c1ccc(O)cc1O [2,4-dihydroxybenzoic acid]
[2]
Conditions	vapor or sublimation pressure
376.22 K	0.000198 kPa and 0.000192 kPa and 0.000195 kPa
377.32 K	0.000224 kPa and 0.000217 kPa and 0.00022 kPa
379.13 K	0.000269 kPa and 0.00026 kPa and 0.000264 kPa
381.15 K	0.000315 kPa and 0.000319 kPa and 0.000332 kPa
383.13 K	0.000399 kPa and 0.000388 kPa and 0.00039 kPa
385.12 K	0.000501 kPa and 0.000489 kPa and 0.000493 kPa
387.17 K	0.000613 kPa and 0.000591 kPa and 0.000593 kPa
389.35 K	0.000762 kPa and 0.000732 kPa and 0.000741 kPa
391.3 K	0.000916 kPa and 0.000884 kPa and 0.000893 kPa
392.11 K	0.000988 kPa and 0.000961 kPa and 0.000955 kPa

O=C(O)c1cc(O)ccc1O [2,5-dihydroxybenzoic acid]
Conditions	Molar enthalpy of transition or fusion [kcal/mol]	Normal melting temperature [°C]
[1]	4.97	–
[2]	–	203.1

[2]
Conditions	vapor or sublimation pressure
372.14 K	0.00015 kPa and 0.000146 kPa and 0.000145 kPa
374.13 K	0.000192 kPa and 0.000182 kPa and 0.000183 kPa
376.19 K	0.000231 kPa and 0.000221 kPa
378.15 K	0.000287 kPa and 0.000299 kPa and 0.000285 kPa
380.3 K	0.000373 kPa and 0.000356 kPa and 0.000364 kPa
382.22 K	0.00045 kPa
384.7 K	0.000572 kPa and 0.000574 kPa
386.12 K	0.000663 kPa and 0.000649 kPa
388.92 K	0.000905 kPa and 0.000871 kPa and 0.000866 kPa

O=C(O)c1c(O)cccc1O [2,6-dihydroxybenzoic acid]
[2]
Conditions	vapor or sublimation pressure
347.14 K	0.000138 kPa and 0.000131 kPa and 0.000133 kPa
349.32 K	0.000171 kPa and 0.000173 kPa
351.02 K	0.000204 kPa and 0.000208 kPa
353.26 K	0.000255 kPa and 0.000249 kPa
355.35 K	0.000323 kPa and 0.000336 kPa
357.2 K	0.000401 kPa and 0.000391 kPa and 0.000386 kPa
359.28 K	0.000491 kPa and 0.000477 kPa and 0.000479 kPa
361.38 K	0.000609 kPa and 0.00059 kPa and 0.000586 kPa
363.19 K	0.000713 kPa and 0.000692 kPa and 0.000679 kPa
365.17 K	0.000881 kPa and 0.000845 kPa and 0.000834 kPa

O=C(O)c1ccc(O)c(O)c1 [3,4-dihydroxybenzoic acid]
[2]
Conditions	vapor or sublimation pressure
387.12 K	8.9e-05 kPa and 8.7e-05 kPa and 8.6e-05 kPa
391.31 K	0.000132 kPa and 0.000133 kPa
393.33 K	0.000166 kPa and 0.000164 kPa and 0.000165 kPa
395.2 K	0.0002 kPa and 0.000202 kPa and 0.000201 kPa
397.32 K	0.000249 kPa and 0.000253 kPa and 0.00025 kPa
401.25 K	0.000367 kPa and 0.000365 kPa
403.26 K	0.000451 kPa and 0.000452 kPa and 0.00045 kPa

O=C(O)c1cc(O)cc(O)c1 [3,5-dihydroxybenzoic acid]
Conditions	Molar enthalpy of transition or fusion [kcal/mol]	Normal melting temperature [°C]
[1]	9.15	–
[2]	–	235.2

[2]
Conditions	vapor or sublimation pressure
407.36 K	9.8e-05 kPa and 9.7e-05 kPa
410.25 K	0.00013 kPa and 0.000129 kPa
413.16 K	0.000176 kPa and 0.000179 kPa and 0.000175 kPa
416.13 K	0.000237 kPa and 0.000234 kPa and 0.000238 kPa
419.21 K	0.000305 kPa and 0.00031 kPa and 0.000311 kPa
422.2 K	0.000407 kPa and 0.000409 kPa and 0.000412 kPa
425.23 K	0.000561 kPa and 0.000563 kPa
